One data set deals with HeLa. In words: Cytostatic assay, HeLa cells. Type of data set: cell-based. To be noted: Homo sapiens, HeLa; for CC50: Table 1, read-out: CC50 HeLa; for IC50: Table 6, read-out: IC50 HeLa. From the text:
(§1) The cell lines employed were L1210/0 (a leukemia cell line), FM3A/0 (a breast cancer cell line), Cem/0 (an acute lymphoblastic leukemia cell line) and HeLa (a cervical cell line).

A further data set has as its system U87.Hyor. In words: Cytostatic assay, Mycoplasma hyorhinis-infected U87 cells. Type of data set: cell-based, human. As to conditions: for IC50: Homo sapiens, U-87 MG, read-out: IC50 U87.Hyor.
Another data set relates to L1210.Hyor. Description: Cytostatic assay, Mycoplasma hyorhinis-infected L1210 cells. As to conditions: for % Retention: CC50 L1210 × 100 ÷ CC50 L1210/Hyor; for CC50 / IC50: Mus musculus; for CC50: L1210, read-out: CC50 L1210/Hyor. The gist of the method:
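Suspension L1210/0 murine leukaemia cells infected with M. hyorhinis, seeded at 60,000 cells/well with test compound in DMEM/10% FBS and grown 48 h at 37 °C, 5% CO2. Cell number counted by Coulter counter; activity also expressed as % retained versus uninfected cells.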

The target in data set [1] is Thymidine Phosphorylase purified from Escherichia coli (Escherichia coli, UniProt P07650). Description: Phosphorylase assay by in situ 19F NMR.
Description: Two potassium phosphate buffers at pH=7.4, 200 nM solution and 300 nM solution respectively, were used as phosphate donor. Units of enzyme were defined as the amount of enzyme required to hydrolyse about 0.25 mg of inosine per min used as standard. Assays were conducted for 30 minutes.
A further data set has as its target E. coli TP (Escherichia coli, UniProt P07650). In words: Phosphorolysis by E. coli TP, HPLC. To be noted: 100 μM compound, room temperature, 0-40 min. Here is the method:
Reaction mixtures containing 100 μM test compound and recombinant TP or UP (human TP: 8.6 ng/μL; E. coli TP: 3.0 ng/μL; human UP: 4 ng/mL) in a total volume of 500 μL reaction buffer (10 mM TrisHCl; 300 μM NaCl; 1 mM EDTA; 2 mM KH2PO4/K2HPO4) were incubated at room temperature. At different time points (i.e. 0, 20, 40 min) 100 μL aliquots of the reaction mixtures were withdrawn and heated at 95° C. for 3 min to inactivate the enzyme. The resulting reaction products were separated on a reverse-phase RP-8 column (Merck, Darmstadt, Germany) and quantified by HPLC analysis (Alliance 2690, Waters, Milford, Mass.). […] UV-based detection was performed at 267 nm. The separation of Urd from uracil was performed by a linear gradient from 100% separation buffer (see above) to 60% separation buffer+40% acetonitrile (3 min 100% separation buffer; 6 min linear gradient of 100% separation buffer to 60% separation buffer+40% acetonitrile; 6 min 60% separation buffer+40% acetonitrile, followed by equilibration at 100% separation buffer). UV-based detection was performed at 258 nm.

Data set [2] deals with T1, thymidylate synthase (TS) (Mus musculus, UniProt P07607). In words: TS activity in intact L1210/0 cells (tritium release). Type of data set: cell-based, murine. To be noted: for increase of inhibition of 3H release upon longer preincubation times: up to 4 hr versus 30 min. On the procedure: (§2) The activity of TS in intact L1210/0 and L1210/TK^− cells was measured by evaluation of tritium release from [5-^3H]dUMP (formed in the cells from [5-^3H]dUrd or [5-^3H]dCyd) in the reaction catalysed by TS. This method has been described in detail by Balzarini & De Clercq (1984). […] After 30 min, 2 h and 4 h preincubation of the cells with the compounds at 37° C., 1 μCi of [5-^3H]dUrd or [5-^3H]dCyd was added to the cell cultures. After 30 min incubation, 100 μL of the cell suspensions were withdrawn and added to a cold suspension of 500 μL activated charcoal (VWR, Haasrode, Belgium) (100 mg/ml in TCA 5%). After 10 min, the suspension was centrifuged at 13,000 rpm for 10 min, after which the radioactivity in 400 μL supernatant was counted in a liquid sinctillator using OptiPhase HiSafe (Perkin Elmer, Waldham, Mass.).
The activity of TS in intact tumour cells can be directly monitored by measuring the tritium release in intact L1210/0 cell cultures that were exposed to [5-^3H]deoxyuridine ([5-^3H]dUrd) or [5-^3H]deoxycytidine ([5-^3H]dCyd). Indeed, after intracellular conversion of [5-^3H]dUrd or [5-^3H]dCyd to [5-^3H]dUMP, the C-5 tritium atom on the pyrimidine base is released during the TS-catalysed reductive methylation.

For another data set, the system named is Cem/hEnt-1. Description: Cytostatic assay, CEM cells containing the hEnt1 transporter. Type of data set: cell-based. An excerpt:
Data are mean (±SD) of at least two to four independent experiments. Table 8 identifies the phosphoramidate motif of compounds embodying the present invention, as discussed above with respect to Table 6, but with “Naph” standing for 1-naphthyl.

Data set [3] has as its target T1, thymidylate synthase (TS). In words: TS activity in intact L1210/TK^− cells (tritium release). Type of data set: cell-based, murine. As to conditions: tritium release from [5-3H]dCyd, 4 hours preincubation; read-out: IC50 against TS, L1210/TK^−. On the procedure: as §2
A further data set has as its system Cem/0. Description: Cytostatic assay, CEM/0 cells. Type of data set: cell-based, human. As to conditions: Homo sapiens, CCRF-CEM; for CC50: Table 1, read-out: CC50 Cem/0.
Excerpt: as §1

The subject of a further data set is U87. In words: Cytostatic assay, U87 cells. Type of data set: cell-based. To be noted: Homo sapiens, U-87 MG, read-out: IC50 U87.
In the next data set the test system is FM3A/TK^−. In words: Cytostatic assay, FM3A/TK^− cells. Type of data set: cell-based. To be noted: Mus musculus, Table 1, read-out: CC50 FM3A/TK^−.
The mark [4] stands for this setting: L1210/0, 30 min preincubation, both substrates, read-out: IC50 for tritium release from [5-3H]dCyd and [5-3H]dUrd.
Setting [5] is: intact L1210/0 cells, 30 min exposure, read-out: IC50 Tritium release from dCyd*.
Where [6] appears, read: intact L1210/0 cells, 30 min exposure, read-out: IC50 Tritium release from dUrd*.
[7] abbreviates: tritium release from [5-3H]dCyd, 4 hours preincubation, read-out: IC50 against TS, L1210/0.
[8] abbreviates: Homo sapiens, CCRF-CEM, read-out: IC50 Cem/hEnt-1.

Entries after “also recorded” stand apart in the source; their conditions may differ. Like-named read-outs stand apart in the source and are kept apart here.

Chain of Thymidine Phosphorylase purified from Escherichia coli (P07650 whole entry): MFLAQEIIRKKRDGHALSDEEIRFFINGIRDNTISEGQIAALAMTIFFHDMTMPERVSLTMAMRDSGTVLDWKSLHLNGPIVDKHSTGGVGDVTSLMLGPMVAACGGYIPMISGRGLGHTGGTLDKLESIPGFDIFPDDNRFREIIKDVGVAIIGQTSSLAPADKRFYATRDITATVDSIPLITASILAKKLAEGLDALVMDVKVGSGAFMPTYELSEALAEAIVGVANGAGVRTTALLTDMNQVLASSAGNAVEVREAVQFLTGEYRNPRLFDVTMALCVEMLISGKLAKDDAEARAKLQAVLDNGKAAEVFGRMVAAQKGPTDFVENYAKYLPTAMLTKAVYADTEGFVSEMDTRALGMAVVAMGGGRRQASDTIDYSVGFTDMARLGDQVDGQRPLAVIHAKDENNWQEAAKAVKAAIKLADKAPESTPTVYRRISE
T1 sequence (P07607 whole entry): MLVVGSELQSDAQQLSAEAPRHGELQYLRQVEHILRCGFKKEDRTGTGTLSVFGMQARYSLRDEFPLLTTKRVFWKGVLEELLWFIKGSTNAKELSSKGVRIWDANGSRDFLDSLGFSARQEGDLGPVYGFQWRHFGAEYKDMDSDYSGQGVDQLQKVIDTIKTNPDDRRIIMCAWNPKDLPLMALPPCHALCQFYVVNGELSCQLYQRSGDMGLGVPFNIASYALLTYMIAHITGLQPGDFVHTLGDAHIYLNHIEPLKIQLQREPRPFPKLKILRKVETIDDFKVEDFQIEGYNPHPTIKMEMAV
Chain of E. coli TP (P07650 whole entry): as the sequence (P07650 whole entry) above
Description for U87.Hyor: All cells were maintained in Dulbecco's modified Eagle's medium (DMEM) (Invitrogen, Carlsbad, Calif.) with 10% foetal bovine serum (FBS) (Biochrom AG, Berlin, Germany), 10 mM Hepes and 1 mM Sodium Pyruvate (Invitrogen). Cells were grown at 37° C. in a humidified incubator with a gas phase of 5% CO2.
Monolayer cells (U87 and U87.Hyor) were seeded in 48-well microtiter plates (Nunc™, Roskilde, Denmark) at 10,000 cells/well. After 24 hours, an equal volume of fresh medium containing the test compounds was added. On day 5, cells were trypsinized and counted in a Coulter counter (Analis, Suarlée, Belgium). Suspension cells (L1210/0, L1210/TK^−, L1210.Hyor, CEM/0, CEM/TK^−) were seeded in 96-well microtiter plates (Nunc™) at 60,000 cells/well in the presence of a given amount of the test compounds. The cells were allowed to proliferate for 48 h (L1210) or 72 hours (CEM) and were then counted in a Coulter counter.

For the compound `O=c1[nH]c(=O)n([C@H]2C[C@H](O)[C@@H](CO)O2)cc1F` [5-FdUrd, 5-fluoro-2′-deoxyuridine, reference compound], the CC50 in the data set on HeLa was 29 ± 7 nM; in the data set on L1210.Hyor, 278 nM; with Cem/0, 28 ± 2 nM; in the data set with FM3A/TK^−, 700 ± 20 nM. The IC50 in the data set with HeLa was 50 ± 11 nM; in the data set with U87.Hyor (Table 3), 3000 ± 550 nM; in the data set with L1210.Hyor (L1210, read-out: IC50 L1210.Hyor, Table 3), 240 nM; in data set [2] (setting [4]), 0.7 to 0.9 nM; in data set [2] (setting [5]), 0.7 nM; in data set [2] (setting [6]), 0.9 ± 0.2 nM. The IC50 in data set [2] (setting [7]) is 0.3 nM; with Cem/hEnt-1 (setting [8]), 40 ± 20 nM; in data set [3], 1420 ± 90 nM; in the data set on Cem/0 (Table 3, read-out: IC50 CEM/0), 28 nM; in the data set with Cem/0 (Table 6, read-out: IC50 Cem/0) it was 22 ± 6 nM; in the data set with U87 (Table 3), 7 ± 1 nM. Besides, in the data set on U87.Hyor, the “loss of cytostatic activity in U87.Hyor versus uninfected U87 cells” value is given as 400 fold. For the same compound, the “% Retention” value in the data set with L1210.Hyor was found to be 0.2%. Moreover, the “loss of cytostatic activity against L1210.Hyor cells” value in the data set with L1210.Hyor (versus L1210/0) came to 300 fold. Moreover, the “Conversion of substrate into the base 5-FU” value in [1] (potassium phosphate buffer increased to 205 nM) is recorded as “fully converted”. Further, the “Conversion of nucleoside into the free base 5FU” value in [1] (potassium phosphate buffer, pH 7.4, TP 20.7 UNI, 25° C.) was found to be 66%. Further, the “Phosphorolysis by E. coli TP” value on E. coli TP is given as “rapidly converted”. Besides, the “increase of inhibition of 3H release upon longer preincubation times” value in data set [2] is recorded as 2 fold.
Regarding `C[C@H](NP(=O)(OC[C@H]1O[C@@H](n2cc(F)c(=O)[nH]c2=O)CC1O)Oc1cccc2ccccc12)C(=O)OCc1ccccc1` (stereo partly drawn) [CPF 373, 5-Fluoro-2′deoxyuridine-5′-O-[1-naphthyl (benzoxy-L-alaninyl)] phosphate], the CC50 was 65 ± 13 nM with HeLa, 25 nM in the data set on L1210.Hyor, 89 ± 43 nM with Cem/0 and 740 ± 180 nM in the data set with FM3A/TK^−. For the same compound, the IC50 in the data set on HeLa is 65 ± 13 nM; with U87.Hyor, 39 nM; with L1210.Hyor (L1210, read-out: IC50 L1210.Hyor), 25 nM; in data set [2] (setting [4]) it was 160 to 190 nM; in data set [2] (setting [5]) it was 190 ± 80 nM; in data set [2] (setting [6]) it was 160 ± 50 nM. In addition, the IC50 in data set [2] (setting [7]) came out at 13 nM; with Cem/hEnt-1 (setting [8]), 50 ± 20 nM; in the data set on Cem/hEnt-1 (read-out: IC50 Cem/hEnt-1 + NBMPR, in the presence of NBMPR), 260 nM; in the data set with Cem/hEnt-1 (read-out: IC50 Cem/hEnt-1 + dipyridamole, in the presence of dipyridamole) it was 130 nM; in [3], 53 nM; in the data set with Cem/0 (Table 3, read-out: IC50 CEM/0) it was 89 nM. Further, the IC50 in the data set with Cem/0 (Table 6, read-out: IC50 Cem/0) stood at 68 ± 35 nM; with U87, 35 nM. Further, the “% Retention” value in the data set on L1210.Hyor was 44%. Moreover, the “IC50(L1210.Hyor)/IC50(L1210/0)” value in the data set with L1210.Hyor (Table 7) amounted to 2.27. Besides, the “Stability in the presence of TP (19F NMR)” value in data set [1] (with and without TP, repeated after days) is recorded as “completely stable; also recorded: evident stability against TP enzymatic activity”. Moreover, the “Phosphorolysis by E. coli TP” value at E. coli TP was “fully stable”. Also, the “inhibitory activity on tritium release less pronounced than that of 5-FdUrd” value in [2] (30 min preincubation) is listed as about 200 fold. In addition, the “increase of inhibition of 3H release upon longer preincubation times” value in [2] came out at 10 fold.

Values taken from US10993957B2 (NuCana plc, priority 2011, dated 2021).
